Drawing on patent US12479847B2 (DANA-FARBER CANCER INSTITUTE, INC., priority 2019, dated 2025), this text covers remaining binding for three molecules.

Holding throughout (assay): KINOMEscan (ScanMAX) kinase profiling
Assay type in all cases: binding

The target in test [1] is T1, panel of 468 kinases (Homo sapiens, UniProt P29320).
T1 construct: purchased KINOMEscan (ScanMAX) service
T1 sequence (P29320 21-983): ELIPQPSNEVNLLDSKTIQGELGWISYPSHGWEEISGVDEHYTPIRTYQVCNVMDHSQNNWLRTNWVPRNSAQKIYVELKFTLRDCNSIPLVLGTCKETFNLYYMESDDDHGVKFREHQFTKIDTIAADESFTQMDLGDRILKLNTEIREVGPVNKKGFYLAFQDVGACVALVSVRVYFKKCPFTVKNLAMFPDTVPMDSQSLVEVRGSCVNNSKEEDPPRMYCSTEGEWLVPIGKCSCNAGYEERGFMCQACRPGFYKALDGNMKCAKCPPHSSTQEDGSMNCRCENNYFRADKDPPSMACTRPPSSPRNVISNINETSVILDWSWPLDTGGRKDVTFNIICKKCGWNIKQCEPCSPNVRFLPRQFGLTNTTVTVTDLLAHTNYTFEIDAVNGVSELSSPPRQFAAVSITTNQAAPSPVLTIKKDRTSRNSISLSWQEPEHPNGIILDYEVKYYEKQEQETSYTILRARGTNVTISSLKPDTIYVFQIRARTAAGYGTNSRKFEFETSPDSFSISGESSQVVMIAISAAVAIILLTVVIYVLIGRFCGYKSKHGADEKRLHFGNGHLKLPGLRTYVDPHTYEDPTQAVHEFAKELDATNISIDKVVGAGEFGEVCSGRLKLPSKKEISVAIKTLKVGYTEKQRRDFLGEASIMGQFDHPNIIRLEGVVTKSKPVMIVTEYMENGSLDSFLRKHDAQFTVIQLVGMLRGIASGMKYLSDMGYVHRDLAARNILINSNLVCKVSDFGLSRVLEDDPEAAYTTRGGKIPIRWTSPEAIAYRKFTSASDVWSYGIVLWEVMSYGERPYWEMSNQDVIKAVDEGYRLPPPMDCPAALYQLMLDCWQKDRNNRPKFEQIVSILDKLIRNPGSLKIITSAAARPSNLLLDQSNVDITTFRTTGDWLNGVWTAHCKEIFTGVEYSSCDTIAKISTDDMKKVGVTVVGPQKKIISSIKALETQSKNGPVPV
The following applies: EPHA3; 1 μM; read-out: % control.

The target in test [2] is T2, panel of 468 kinases (Homo sapiens, UniProt P36888, R834Q).
T2 construct: purchased KINOMEscan (ScanMAX) service
T2 sequence (P36888 27-993 R834Q): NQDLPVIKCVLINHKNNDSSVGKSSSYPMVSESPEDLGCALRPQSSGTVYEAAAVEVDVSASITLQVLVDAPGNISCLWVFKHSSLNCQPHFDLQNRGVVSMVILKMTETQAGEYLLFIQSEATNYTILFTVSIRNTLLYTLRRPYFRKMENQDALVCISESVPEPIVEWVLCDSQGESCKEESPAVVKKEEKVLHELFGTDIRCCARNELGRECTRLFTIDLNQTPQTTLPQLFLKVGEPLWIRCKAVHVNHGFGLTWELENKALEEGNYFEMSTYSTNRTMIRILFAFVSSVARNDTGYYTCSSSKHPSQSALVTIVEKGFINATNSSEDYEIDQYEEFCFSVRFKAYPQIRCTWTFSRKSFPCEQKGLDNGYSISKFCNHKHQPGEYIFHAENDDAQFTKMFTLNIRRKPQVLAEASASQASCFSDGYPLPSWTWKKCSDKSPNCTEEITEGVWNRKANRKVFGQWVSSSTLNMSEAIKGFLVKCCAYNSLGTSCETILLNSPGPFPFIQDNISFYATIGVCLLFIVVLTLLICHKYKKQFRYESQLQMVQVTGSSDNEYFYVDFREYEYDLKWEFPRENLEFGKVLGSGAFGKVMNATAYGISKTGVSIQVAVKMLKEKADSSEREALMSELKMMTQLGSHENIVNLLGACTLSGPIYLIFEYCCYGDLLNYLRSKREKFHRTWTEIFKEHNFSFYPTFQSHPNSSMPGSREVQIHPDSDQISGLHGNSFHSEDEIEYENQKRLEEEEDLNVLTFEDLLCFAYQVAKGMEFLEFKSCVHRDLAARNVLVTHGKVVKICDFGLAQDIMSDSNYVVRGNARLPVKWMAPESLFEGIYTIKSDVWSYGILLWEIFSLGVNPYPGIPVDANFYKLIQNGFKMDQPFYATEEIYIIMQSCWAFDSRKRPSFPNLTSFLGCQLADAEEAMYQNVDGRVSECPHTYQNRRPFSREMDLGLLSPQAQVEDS
The following applies: FLT3(R834Q); 1 μM; read-out: % control.

Test [3] concerns the target T3, panel of 468 kinases (Homo sapiens, UniProt Q9NRH2).
T3 construct: purchased KINOMEscan (ScanMAX) service
T3 sequence (Q9NRH2 1-765): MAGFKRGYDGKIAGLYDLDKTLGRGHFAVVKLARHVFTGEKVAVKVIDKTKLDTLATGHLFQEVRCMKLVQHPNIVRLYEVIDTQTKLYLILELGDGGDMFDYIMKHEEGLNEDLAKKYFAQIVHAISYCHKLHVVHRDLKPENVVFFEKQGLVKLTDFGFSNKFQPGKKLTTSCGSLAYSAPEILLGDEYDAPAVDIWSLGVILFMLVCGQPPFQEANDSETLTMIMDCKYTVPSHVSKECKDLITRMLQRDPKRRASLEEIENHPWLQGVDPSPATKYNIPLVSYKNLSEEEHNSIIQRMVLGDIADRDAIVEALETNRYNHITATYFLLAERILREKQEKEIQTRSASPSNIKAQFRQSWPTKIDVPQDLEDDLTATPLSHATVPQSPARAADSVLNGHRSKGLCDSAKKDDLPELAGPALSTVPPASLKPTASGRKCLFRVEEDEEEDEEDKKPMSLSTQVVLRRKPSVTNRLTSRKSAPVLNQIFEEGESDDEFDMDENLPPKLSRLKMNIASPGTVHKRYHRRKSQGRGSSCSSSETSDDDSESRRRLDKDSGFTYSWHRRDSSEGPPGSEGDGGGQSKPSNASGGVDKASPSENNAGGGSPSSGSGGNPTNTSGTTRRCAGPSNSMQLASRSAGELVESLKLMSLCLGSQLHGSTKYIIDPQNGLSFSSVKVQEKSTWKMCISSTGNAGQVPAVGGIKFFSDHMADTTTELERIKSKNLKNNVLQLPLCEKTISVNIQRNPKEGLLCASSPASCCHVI
The following applies: SNRK; 1 μM; read-out: % control.

Take `CNc1nc(Nc2ccc(S(=O)(=O)N3CCC(N4CCOCC4)CC3)cc2OC)nc2[nH]cc(Cl)c12` [Compound 12, 5-chloro-N2-(2-methoxy-4-((4-morpholinopiperidin-1-yl)sulfonyl)phenyl)-N4-methyl-7H-pyrrolo[2,3-d]pyrimidine-2,4-diamine]: the results for the remaining binding at 1 µM on panel of 468 kinases [1], at panel of 468 kinases [2] and at panel of 468 kinases [3] were 100%, 92% and 91%, respectively.

Regarding `CNc1nc(Nc2ccc(C(=O)N3CCC(N4CCOCC4)CC3)c3c2OCO3)nc2[nH]cc(Cl)c12` [Compound 75, (7-((5-chloro-4-(methylamino)-7H-pyrrolo[2,3-d]pyrimidin-2-yl)amino)benzo[d][1,3]dioxol-4-yl)(4-morpholinopiperidin-1-yl)methanone], the remaining binding at 1 µM at panel of 468 kinases [1] worked out at 100%; at panel of 468 kinases [2] it was 73%; on panel of 468 kinases [3] it was 87%.

For `CNc1nc(Nc2ccc(P3(=O)CCN(C4CCOCC4)CC3)cc2OC)nc2[nH]cc(Cl)c12` [Compound 77, 4-(4-((5-chloro-4-(methylamino)-7H-pyrrolo[2,3-d]pyrimidin-2-yl)amino)-3-methoxyphenyl)-1-(tetrahydro-2H-pyran-4-yl)-1,4-azaphosphinane 4-oxide], the values for the remaining binding at 1 µM at panel of 468 kinases [1], on panel of 468 kinases [2] and on panel of 468 kinases [3] were 100%, 82% and 50%, respectively.
